Reference: patent publication US11534443B2, “Quinazoline compounds, preparation method, use, and pharmaceutical composition thereof” (INSTITUTE OF MATERIA MEDICA, CHINESE ACADEMY OF MEDICAL …, priority 2016, dated 2022)

How the values were obtained:
[1] = system: human lung cancer cell NCI-H460; experiment: Tumor cell viability by MTT assay; assay type: cell-based; details: Homo sapiens, NCI-H460, 96 h
Protocol: After 24 hours, 100 μL of fresh medium containing different concentrations of test compounds and the corresponding solvent control was added into each well to a final concentration of DMSO less than 0.2%. Six to nine concentration groups were set for each test compound, and three parallel wells were set for each group. The plate was incubated at 5% CO2, 37° C. for 96 hours. 20 μL of freshly prepared PBS solution containing 5 mg/mL MTT was added to each well. The supernatant was discarded after incubation for another 4 hours. 150 μL DMSO was added to each well to dissolve the MTT formazan precipitate. After being mixed by a micro-oscillator, the optical density (OD) was measured at the wavelength of 570 nm, and the tumor cells treated with DMSO were used as a control group.

PI3Kα = PI3Kα (Homo sapiens (Human), UniProt P42336); experiment: Biochemical evaluation of activity of PI3Kα (Kinase-Glo luminescence kinase assay); details: 25 μM ATP, 50 μM PIP2, 1 h at room temperature
Protocol: The potency of compounds in the present intention against PI3Kα was assessed by in vitro kinase assay. The kinase activity of PI3Kα was determined by detecting the level of ADP produced in the kinase reaction with luciferase-based luminescence detection.
The Kinase-Glo™ Kinase Assay Kit was purchased from Promega. All assays were performed at room temperature using white OptiPlate™-384 well plate. The PI3Kα kinase was purchased from Invitrogen. The substrate was PIP2 from Invitrogen. The kinase buffer contained 50 mM Hepes (pH 7.5), 3 mM MgCl2, 100 mM NaCl, 1 mM EGTA, 0.03% CHAPS and 2 mM DTT. […] The substrate solution contained 100 μM PIP2 and 50 μM ATP. The test compound was diluted to 10 mM in 100% DMSO and serially diluted three times into ten different concentrations in 100% DMSO. The compound diluted in 100% DMSO was diluted 25-fold in 1×kinase buffer. 2.5 μL of the diluted compound solution and 2.5 μL PI3Kα kinase solution were added to each well of a 384-well plate. The reaction was initiated by addition of 5 μL substrate solution to each well. […] The plate was then covered and the reaction was allowed to proceed for one hour at room temperature, followed by the addition of 10 μL Kinase-Glo™ reagent to each well to stop the reaction.
The percentage of inhibition was calculated as follows: Inhibition %=100−(max−sample RLU)/(max−min)*100
wherein sample RLU was the luminescence reading for a given compound concentration, min was the reading of DMSO control, and max was the reading of the enzyme-free control. The IC50 value was calculated with the XLfit program in Excel.

PI3Kα, sequence (P42336 whole entry): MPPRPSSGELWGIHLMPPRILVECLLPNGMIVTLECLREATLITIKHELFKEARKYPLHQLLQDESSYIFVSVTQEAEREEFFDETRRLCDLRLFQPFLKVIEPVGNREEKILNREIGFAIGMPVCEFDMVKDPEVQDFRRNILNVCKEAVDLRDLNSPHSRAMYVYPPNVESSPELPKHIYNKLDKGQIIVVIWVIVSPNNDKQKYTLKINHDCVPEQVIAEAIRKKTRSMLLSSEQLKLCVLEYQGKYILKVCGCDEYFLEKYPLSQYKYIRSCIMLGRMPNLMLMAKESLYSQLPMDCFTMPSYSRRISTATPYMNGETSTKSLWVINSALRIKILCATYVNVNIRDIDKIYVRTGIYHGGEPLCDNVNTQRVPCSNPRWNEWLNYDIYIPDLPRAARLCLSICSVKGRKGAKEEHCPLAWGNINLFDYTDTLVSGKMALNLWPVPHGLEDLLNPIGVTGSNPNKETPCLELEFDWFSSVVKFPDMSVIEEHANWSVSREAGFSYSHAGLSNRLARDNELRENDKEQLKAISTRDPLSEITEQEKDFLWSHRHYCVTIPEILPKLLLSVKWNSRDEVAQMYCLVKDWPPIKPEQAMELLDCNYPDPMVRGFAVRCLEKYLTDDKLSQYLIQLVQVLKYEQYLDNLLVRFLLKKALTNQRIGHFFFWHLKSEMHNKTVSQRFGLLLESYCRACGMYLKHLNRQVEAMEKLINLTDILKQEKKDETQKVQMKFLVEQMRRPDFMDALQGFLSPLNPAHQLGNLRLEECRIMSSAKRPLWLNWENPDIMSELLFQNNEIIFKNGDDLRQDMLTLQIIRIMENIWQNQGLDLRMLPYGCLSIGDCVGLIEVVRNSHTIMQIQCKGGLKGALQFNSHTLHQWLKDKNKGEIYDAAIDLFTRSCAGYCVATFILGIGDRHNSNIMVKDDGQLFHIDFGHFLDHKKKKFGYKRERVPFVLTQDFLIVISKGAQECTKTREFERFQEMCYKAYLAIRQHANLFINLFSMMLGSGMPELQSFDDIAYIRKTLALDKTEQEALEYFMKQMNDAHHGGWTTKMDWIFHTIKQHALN
PI3Kα, sequence (P27986 whole entry partner): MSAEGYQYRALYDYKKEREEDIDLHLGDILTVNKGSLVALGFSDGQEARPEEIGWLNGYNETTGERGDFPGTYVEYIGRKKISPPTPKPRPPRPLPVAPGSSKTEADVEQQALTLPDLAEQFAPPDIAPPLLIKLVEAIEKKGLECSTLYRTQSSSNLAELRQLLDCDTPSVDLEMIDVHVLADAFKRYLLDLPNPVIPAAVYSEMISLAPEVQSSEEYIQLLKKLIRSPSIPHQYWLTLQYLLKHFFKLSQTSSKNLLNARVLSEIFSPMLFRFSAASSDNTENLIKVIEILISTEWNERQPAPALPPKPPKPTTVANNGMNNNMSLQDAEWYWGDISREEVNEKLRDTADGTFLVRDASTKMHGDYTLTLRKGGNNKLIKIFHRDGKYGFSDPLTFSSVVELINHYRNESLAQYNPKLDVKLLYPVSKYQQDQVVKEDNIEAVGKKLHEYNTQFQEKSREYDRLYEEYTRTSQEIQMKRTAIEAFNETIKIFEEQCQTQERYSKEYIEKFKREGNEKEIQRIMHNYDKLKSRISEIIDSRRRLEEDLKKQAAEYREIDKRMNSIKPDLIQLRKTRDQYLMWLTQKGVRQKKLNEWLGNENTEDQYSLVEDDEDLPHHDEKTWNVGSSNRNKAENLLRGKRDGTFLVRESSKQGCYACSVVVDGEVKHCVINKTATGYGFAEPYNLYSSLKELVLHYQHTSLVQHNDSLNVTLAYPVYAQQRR

Row | IC50 [1] [nM] | IC50 (PI3Kα) [nM] | SMILES
1 | 110 | 1.6 | CNc1nc(C)c2cc(-c3cnc(OC)c(NS(=O)(=O)c4ccc(Cl)s4)c3)cc(O[C@@H]3CCOC3)c2n1 [Example 34, (R)—N-(2-methoxy-5-(4-methyl-2-(methylamino)-8-((tetrahydrofuran-3-yl)oxy)quinazolin-6-yl)pyridin-3-yl)-5-chlorothiophene-2-sulfonamide]
2 | 400 | 2.2 | CNc1nc(C)c2cc(-c3cnc(OC)c(NS(=O)(=O)c4ccc(F)cc4F)c3)cc(OCC3CCOCC3)c2n1 [Example 36, N-(2-methoxy-5-(4-methyl-2-(methylamino)-8-((tetrahydro-2H-pyran-4-yl)methoxy)quinazolin-6-yl)pyridin-3-yl)-2,4-difluoro-benzenesulfonamide]
3 | 250 | 2.3 | CNc1nc(C)c2cc(-c3cnc(OC)c(NS(=O)(=O)c4ccc(F)cc4F)c3)cc(OC3CCOC(C)(C)C3)c2n1 (stereo not drawn) [Example 37, N-(5-(8-((2,2-dimethyltetrahydro-2H-pyran-4-yl)oxy)-4-methyl-2-(methylamino)quinazolin-6-yl)-2-methoxypyridin-3-yl)-2,4-difluorobenzenesulfonamide]
4 | 310 | 2.3 | CNc1nc(C)c2cc(-c3cnc(OC)c(NS(=O)(=O)c4ccc(F)cc4F)c3)cc(OCC3CCOC3)c2n1 (stereo not drawn) [Example 38, N-(2-methoxy-5-(4-methyl-2-(methylamino)-8-((tetrahydrofuran-3-yl)methoxy)quinazolin-6-yl)pyridin-3-yl)-2,4-difluorobenzenesulfonamide]
5 | 1700 | 15 | CNc1nc(C)c2cc(-c3cnc(OC)c(NS(=O)(=O)c4ccc(F)cc4F)c3)cc(OC3CCCCC3)c2n1 [Example 39, N-(5-(8-(cyclohexyloxy)-4-methyl-2-(methylamino)quinazolin-6-yl)-2-methoxypyridin-3-yl)-2,4-difluorobenzenesulfonamide]
6 | 530 | 1.1 | COc1ncc(-c2cc(OC3CCOCC3)c3nc(NC(C)=O)nc(C)c3c2)cc1NS(=O)(=O)c1ccc(F)cc1F [Example 42, N-(6-(5-(2,4-difluorophenylsulfonamido)-6-methoxypyridin-3-yl)-4-methyl-8-((tetrahydro-2H-pyran-4-yl)oxy)quinazolin-2-yl)acetamide]
7 | 4000 | 10 | COc1ncc(-c2cc(OC3CCOCC3)c3nc(NC(C)=O)nc(C)c3c2)cc1NS(C)(=O)=O [Example 43, N-(6-(6-methoxy-5-(methylsulfonamido)pyridin-3-yl)-4-methyl-8-((tetrahydro-2H-pyran-4-yl)oxy)quinazolin-2-yl)acetamide]
8 | 45 | 0.92 | COc1ncc(-c2cc(OC3CCOCC3)c3ncnc(C)c3c2)cc1NS(=O)(=O)c1ccc(F)cc1Cl [Example 45, N-(2-methoxy-5-(4-methyl-8-((tetrahydro-2H-pyran-4-yl)oxy)quinazolin-6-yl)pyridin-3-yl)-2-chloro-4-fluorobenzenesulfonamide]
9 | 29 | 0.7 | COc1ncc(-c2cc(OC3CCOCC3)c3ncnc(C)c3c2)cc1NS(=O)(=O)c1ccc(Cl)s1 [Example 46, N-(2-methoxy-5-(4-methyl-8-((tetrahydro-2H-pyran-4-yl)oxy)quinazolin-6-yl)pyridin-3-yl)-5-chlorothiophene-2-sulfonamide]
10 | 570 | 1.4 | COc1ncc(-c2cc(OC3CCOCC3)c3ncnc(C)c3c2)cc1NS(C)(=O)=O [Example 47, N-(2-methoxy-5-(4-methyl-8-((tetrahydro-2H-pyran-4-yl)oxy)quinazolin-6-yl)pyridin-3-yl)methanesulfonamide]
11 | 280 | 2.1 | COc1ncc(-c2cc(OC3CCOCC3)c3ncnc(C)c3c2)cc1NS(=O)(=O)C1CC1 [Example 48, N-(2-methoxy-5-(4-methyl-8-((tetrahydro-2H-pyran-4-yl)oxy)quinazolin-6-yl)pyridin-3-yl)cyclopropanesulfonamide]
12 | 34 | 0.76 | COc1ncc(-c2cc(O[C@@H]3CCOC3)c3ncnc(C)c3c2)cc1NS(=O)(=O)c1ccc(F)cc1F [Example 49, (R)—N-(2-methoxy-5-(4-methyl-8-((tetrahydrofuran-3-yl)oxy)quinazolin-6-yl)pyridin-3-yl)-2,4-difluorobenzenesulfonamide]
13 | 790 | 2.2 | COc1ncc(-c2cc(O[C@@H]3CCOC3)c3ncnc(C)c3c2)cc1NS(C)(=O)=O [Example 50, (R)—N-(2-methoxy-5-(4-methyl-8-((tetrahydrofuran-3-yl)oxy)quinazolin-6-yl)pyridin-3-yl)methanesulfonamide]
14 | 32 | 0.72 | COc1ncc(-c2cc(O[C@H]3CCOC3)c3ncnc(C)c3c2)cc1NS(=O)(=O)c1ccc(F)cc1F [Example 51, (S)—N-(2-methoxy-5-(4-methyl-8-((tetrahydrofuran-3-yl)oxy)quinazolin-6-yl)pyridin-3-yl)-2,4-difluorobenzenesulfonamide]
15 | 670 | 2.1 | COc1ncc(-c2cc(O[C@H]3CCOC3)c3ncnc(C)c3c2)cc1NS(C)(=O)=O [Example 52, (S)—N-(2-methoxy-5-(4-methyl-8-((tetrahydrofuran-3-yl)oxy)quinazolin-6-yl)pyridin-3-yl)methanesulfonamide]
16 | 38 | 0.73 | COc1ncc(-c2cc(OCC3CCOCC3)c3ncnc(C)c3c2)cc1NS(=O)(=O)c1ccc(F)cc1F [Example 53, N-(2-methoxy-5-(4-methyl-8-((tetrahydro-2H-pyran-4-yl)methoxy)quinazolin-6-yl)pyridin-3-yl)-2,4-difluorobenzenesulfonamide]
17 | 97 | 1.7 | COc1ncc(-c2cc(OC3CCCCC3)c3ncnc(C)c3c2)cc1NS(=O)(=O)c1ccc(F)cc1F [Example 55, N-(5-(8-(cyclohexyloxy)-4-methylquinazolin-6-yl)-2-methoxypyridin-3-yl)-2,4-difluorobenzenesulfonamide]
18 | 73 | 0.92 | COc1ncc(-c2cc(OC3CCCC3)c3ncnc(C)c3c2)cc1NS(=O)(=O)c1ccc(F)cc1F [Example 56, N-(5-(8-(cyclopentyloxy)-4-methylquinazolin-6-yl)-2-methoxypyridin-3-yl)-2,4-difluorobenzenesulfonamide]
19 | 450 | 1.7 | COc1ncc(-c2cc(OC3CCC(F)(F)CC3)c3ncnc(C)c3c2)cc1NS(=O)(=O)c1ccc(F)cc1F [Example 57, N-(5-(8-((4,4-difluorocyclohexyl)oxy)-4-methylquinazolin-6-yl)-2-methoxypyridin-3-yl)-2,4-difluorobenzenesulfonamide]
20 | 56 | 1 | COc1ncc(-c2cc(OC3CCOC(C)(C)C3)c3ncnc(C)c3c2)cc1NS(=O)(=O)c1ccc(F)cc1F (stereo not drawn) [Example 58, N-(5-(8-((2,2-dimethyltetrahydro-2H-pyran-4-yl)oxy)-4-methylquinazolin-6-yl)-2-methoxypyridin-3-yl)-2,4-difluorobenzenesulfonamide]
21 | 17 | 0.74 | COc1ncc(-c2cc(OCC3(C)COC3)c3ncnc(C)c3c2)cc1NS(=O)(=O)c1ccc(F)cc1F [Example 59, N-(2-methoxy-5-(4-methyl-8-((3-methyloxetan-3-yl)methoxy)quinazolin-6-yl)pyridin-3-yl)-2,4-difluoro-benzenesulfonamide]
